Source: US20260265199A1, “CRYSTALLINE FORMS OF (R)-2-AMINO-5-(4-(2-(3,5-DIFLUOROPHENYL)-2-HYDROXYACETAMIDO)-2-METHYLPHENYL)-N-ISOPROPYLNICOTINAMIDE AND METHODS FOR USING THE SAME” (HIBERCELL, INC., priority 2023, published 2026)
Structures can show the parent of a compound that is named as a salt. Where two headings read alike, the source gives them in different places.

Experiment: Phase 1a study: pharmacokinetics after oral BID dosing in subjects with advanced solid tumors
Format: in vivo, human
Parameters: Increase in mean: scale not given here
Conditions: for Increase in mean: 600 mg vs preceding dose level (400 mg); for Cmax / half-life / AUC(0-t) / Vd/F / Tmax: human, in vivo, po; for Vd/F: read-out: Vz/F
Protocol: This example describes a first in human, Phase 1a, multi-center, open-label study to establish the maximum tolerated dose (MTD) and evaluate the safety and tolerability of oral dosing of Form A of the hemi-fumarate salt of the compound of formula (I) (Example 11) in a dose-escalating fashion. Form A of the hemi-fumarate salt was orally administered BID every day with food or within 30 minutes of completing a meal, starting at 25 mg, with doses escalating to 50, 100, 200, 400, 600, and 900 mg BID as safety allows for each 3-week treatment cycle.
Up to 36 qualified subjects at 3 to 5 US sites, who have specific tumor types of renal cell carcinoma (RCC), gastric cancer (GC), metastatic breast cancer (MBC), small cell lung cancer (SCLC), and other solid tumors (e.g., non-small cell lung cancer, colorectal cancer, carcinoma of unknown primary) with the exception of rapidly progressing neoplasms (e.g., pancreatic cancer, glioblastoma, hepatocellular carcinoma) received Form A of the hemi-fumarate salt. Every effort was made to ensure approximately 50% of all subjects enrolled were subjects with RCC and GC. The starting dose level was 25 mg twice daily (BID), escalating to 50, 100, and 200 mg BID as safety allows, following the Bayesian Optimal Interval (BOIN) design. The safety monitoring committee (SMC) evaluated the dose-limiting toxicities (DLTs) and cumulative safety and PK data at the end of each cohort. Based on the SMC recommendations after a comprehensive review of PK and safety data for 200 mg BID dose, higher dose levels were evaluated, starting with 400 mg BID. The dose escalated to 600 mg and then 900 mg following the BOIN design starting with 1 subject at each escalated dose, until the MTD was reached or the sponsor or SMC declares the dose most appropriate for clinical development. This Phase 1a will be expanded into a Phase 1b/2a study through a protocol amendment and will then assess the dose and tumor type(s) selected in Phase 1a as the most appropriate for further clinical development. Subjects were dosed until unacceptable toxicity, disease progression per immune-related Response Evaluation Criteria in Solid Tumors (iRECIST), subject withdrawal, any other administrative reasons, or after 2 years of treatment, whichever occurs first. Efficacy was assessed via Response Evaluation Criteria in Solid Tumors 1.1 (RECIST 1.1); computed tomography (CT) scans were conducted every 6 weeks. Safety, including occurrence of dose-limiting toxicities (DLTs), pharmacokinetics (PK), and biomarker parameters were also assessed.
Form A of the hemi-fumarate salt was orally administered BID with food or within 30 minutes of completing a meal, starting at 25 mg, with doses escalating to 50, 100, 200, 400, 600 and 900 mg BID as safety allowed. Up to 24 subjects were enrolled to ensure 12 subjects completed the study at the estimated MTD of Form A of the hemi-fumarate salt. Dosing occurred in 3-week cycles. Subjects spent Cycle 1/Day 1 (C1D1) in the clinic followed by an overnight stay for safety monitoring and PK sampling. Subjects were hospitalized for administration of first 3 doses: CID1 am and pm doses, and Cycle 1/Day 2 (C1D2) am dose; on Days 8, 15, and 21 the am dose was taken in the clinic after the planned PK samples. All other doses were self administered at home.
Results of Cohorts 1 to 6 the study are detailed in Tables 47-50 below.

[1] = 25 mg, 25 mg single oral dose, Cycle 1 Day 1, geometric mean, N = 3
[2] = 50 mg, 50 mg single oral dose, Cycle 1 Day 1, geometric mean, N = 3
[3] = 200 mg, 200 mg single oral dose, Cycle 1 Day 1, geometric mean, N = 5

Cc1cc(NC(=O)[C@H](O)c2cc(F)cc(F)c2)ccc1-c1cnc(N)c(C(=O)NC(C)C)c1 [Form A of the hemi-fumarate salt, (R)-2-amino-5-(4-(2-(3,5-difluorophenyl)-2-hydroxyacetamido)-2-methylphenyl)-N-isopropylnicotinamide]
Increase in mean (single oral dose, Cycle 1 Day 1): 3.03
Increase in mean (twice daily oral, Cycle 1 Day 21): 1.19
Cmax [1]: 120 ng/mL
half-life (25 mg, 25 mg single oral dose, Cycle 1 Day 1, geometric mean, N = 3, interpret with caution, terminal elimination phase not well captured, read-out: t1/2 (converted)): 539 min
AUC(0-t) (25 mg, 25 mg single oral dose, Cycle 1 Day 1, geometric mean, N = 3, read-out: AUC0-12): 850 ng·h/mL
AUC(0-t) (25 mg, 25 mg single oral dose, Cycle 1 Day 1, geometric mean, N = 3, read-out: AUC0-last): 850 ng·h/mL
Vd/F [1]: 147 L
Tmax (25 mg, 25 mg single oral dose, Cycle 1 Day 1, median, N = 3): 8 h
half-life (25 mg, 25 mg twice daily oral, Cycle 1 Day 21, N = 3, interpret with caution, terminal elimination phase not well captured, read-out: t1/2 (converted)): 960 min
Vd/F (25 mg, 25 mg twice daily oral, Cycle 1 Day 21, N = 3): 150 L
Cmax (25 mg, 25 mg twice daily oral, Cycle 1 Day 21, geometric mean, N = 3): 537 ng/mL
AUC(0-t) (25 mg, 25 mg twice daily oral, Cycle 1 Day 21, geometric mean, N = 3, read-out: AUC0-last): 4110 ng·h/mL
half-life (25 mg, 25 mg twice daily oral, Cycle 1 Day 21, geometric mean, N = 3, read-out: t1/2, eff (converted)): 2150 min
Tmax (25 mg, 25 mg twice daily oral, Cycle 1 Day 21, median, N = 3): 2 h
Cmax [2]: 243 ng/mL
half-life (50 mg, 50 mg single oral dose, Cycle 1 Day 1, geometric mean, N = 3, interpret with caution, terminal elimination phase not well captured, read-out: t1/2 (converted)): 666 min
AUC(0-t) (50 mg, 50 mg single oral dose, Cycle 1 Day 1, geometric mean, N = 3, read-out: AUC0-12): 2090 ng·h/mL
AUC(0-t) (50 mg, 50 mg single oral dose, Cycle 1 Day 1, geometric mean, N = 3, read-out: AUC0-last): 2090 ng·h/mL
Vd/F [2]: 141 L
Tmax (50 mg, 50 mg single oral dose, Cycle 1 Day 1, median, N = 3): 4 h
Cmax (50 mg, 50 mg twice daily oral, Cycle 1 Day 21, geometric mean, N = 3): 978 ng/mL
AUC(0-t) (50 mg, 50 mg twice daily oral, Cycle 1 Day 21, geometric mean, N = 3, read-out: AUC0-last): 9070 ng·h/mL
half-life (50 mg, 50 mg twice daily oral, Cycle 1 Day 21, geometric mean, N = 3, read-out: t1/2, eff (converted)): 1890 min
Tmax (50 mg, 50 mg twice daily oral, Cycle 1 Day 21, median, N = 3): 2 h
Cmax (100 mg, 100 mg single oral dose, Cycle 1 Day 1, geometric mean, N = 4): 380 ng/mL
AUC(0-t) (100 mg, 100 mg single oral dose, Cycle 1 Day 1, geometric mean, N = 4, read-out: AUC0-12): 2800 ng·h/mL
AUC(0-t) (100 mg, 100 mg single oral dose, Cycle 1 Day 1, geometric mean, N = 4, read-out: AUC0-last): 1930 ng·h/mL
Tmax (100 mg, 100 mg single oral dose, Cycle 1 Day 1, median, N = 4): 7 h
half-life (100 mg, 100 mg twice daily oral, Cycle 1 Day 21, N = 3, interpret with caution, terminal elimination phase not well captured, read-out: t1/2 (converted)): 2260 min
Vd/F (100 mg, 100 mg twice daily oral, Cycle 1 Day 21, N = 3): 383 L
Cmax (100 mg, 100 mg twice daily oral, Cycle 1 Day 21, geometric mean, N = 3): 1310 ng/mL
AUC(0-t) (100 mg, 100 mg twice daily oral, Cycle 1 Day 21, geometric mean, N = 3, read-out: AUC0-last): 11700 ng·h/mL
half-life (100 mg, 100 mg twice daily oral, Cycle 1 Day 21, geometric mean, N = 3, read-out: t1/2, eff (converted)): 1810 min
Tmax (100 mg, 100 mg twice daily oral, Cycle 1 Day 21, median, N = 3): 4 h
Cmax [3]: 839 ng/mL
half-life (200 mg, 200 mg single oral dose, Cycle 1 Day 1, geometric mean, N = 5, interpret with caution, terminal elimination phase not well captured, read-out: t1/2 (converted)): 1240 min
AUC(0-t) (200 mg, 200 mg single oral dose, Cycle 1 Day 1, geometric mean, N = 5, read-out: AUC0-12): 5800 ng·h/mL
AUC(0-t) (200 mg, 200 mg single oral dose, Cycle 1 Day 1, geometric mean, N = 5, read-out: AUC0-last): 5800 ng·h/mL
Vd/F [3]: 331 L
Tmax (200 mg, 200 mg single oral dose, Cycle 1 Day 1, median, N = 5): 4 h
half-life (200 mg, 200 mg twice daily oral, Cycle 1 Day 21, N = 4, interpret with caution, terminal elimination phase not well captured, read-out: t1/2 (converted)): 463 min
Vd/F (200 mg, 200 mg twice daily oral, Cycle 1 Day 21, N = 4): 79.4 L
Cmax (200 mg, 200 mg twice daily oral, Cycle 1 Day 21, geometric mean, N = 4): 2990 ng/mL
AUC(0-t) (200 mg, 200 mg twice daily oral, Cycle 1 Day 21, geometric mean, N = 4, read-out: AUC0-last): 27200 ng·h/mL
half-life (200 mg, 200 mg twice daily oral, Cycle 1 Day 21, geometric mean, N = 4, read-out: t1/2, eff (converted)): 2150 min
